Measurements: patent US8642621B2, “(4-phenyl-piperidin-1-yl)-[5-(1H-pyrazol-4-yl)-thiophen-3-yl]-methanone compounds and their use” (The University Of Edinburgh, priority 2009, dated 2014)
Read-outs that look alike come from different tables or passages of the source.

What was measured:
[1] = biological target: T1, human 11β-HSD1 enzyme (Homo sapiens, UniProt P28845); test: Cellular in vitro 11β-HSD1 enzyme inhibition assay (SPA, HEK293/11β-HSD1 cells); format: cell-based
T1 construct: stably transfected with a construct containing the full-length gene coding for the human 11β-HSD1 enzyme; expressed in transfected cells; HEK293/11β-HSD1 cells)
T1 sequence (P28845 whole entry): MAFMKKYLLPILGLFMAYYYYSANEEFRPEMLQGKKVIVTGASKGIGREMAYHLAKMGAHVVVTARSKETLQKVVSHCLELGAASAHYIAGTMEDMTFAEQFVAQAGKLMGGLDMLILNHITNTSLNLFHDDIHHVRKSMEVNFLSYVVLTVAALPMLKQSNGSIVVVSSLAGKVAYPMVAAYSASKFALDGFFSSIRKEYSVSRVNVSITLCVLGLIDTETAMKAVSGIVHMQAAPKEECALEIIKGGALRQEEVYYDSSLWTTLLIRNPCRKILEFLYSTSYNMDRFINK
Description: Cellular In Vitro 11β-HSD1 Enzyme Inhibition Assay
Compounds were assessed by a Scintillation Proximity Assay (SPA) performed according to the following protocol:
HEK293 cells were stably transfected with a construct containing the full-length gene coding for the human 11β-HSD1 enzyme to create HEK293/11β-HSD1 cells. Cells were routinely cultured in DMEM containing 10% calf foetal serum, 1% glutamine, and 1% penicillin and streptomycin. Prior to assay, cells were plated at 2×10^4 cells/well in 96-well poly-D-Lys coated flat-bottomed microplates and incubated in 5% CO2, 95% O2 at 37° C. for 24 hours. The media in each well was removed immediately before assay.
Compounds to be tested were dissolved in DMSO at 10 mM and serially diluted into water containing 10% DMSO. Diluted compounds at a volume of 10 μL were added to wells of a 96-well V-bottomed microplate. A solution of DMEM, 1% glutamine, 1% penicillin and streptomycin, and 22 nM tritiated cortisone was prepared and 90 μL added to each well of the assay plate. This solution (100 μL/well) was transferred to the plate containing the cells. The plate was then incubated in 5% CO2, 95% O2 at 37° C. for 2 hours.
Following this incubation, 50 μL of the assay solution was transferred to each well of a 96-well scintillation microplate. A mixture consisting of anti-mouse YSi SPA beads, pre-mixed with anti-cortisol antibody in assay buffer (50 mM Tris.HCl, pH 7.0; 300 mM NaCl; 1 mM EDTA, 5% glycerol) was prepared and 50 μL added to each well of the scintillation microplate. An adhesive strip was applied to the microplate and the plate gently shaken for at least 2 hours at room temperature, and then spun briefly on a low speed centrifuge. The plate was read on a scintillation counter suitable for 96-well microplates. For the calculation of percentage inhibition, a series of wells were added to the plate that represented the assay maximum and the assay minimum: one set that contained substrate without cells (minimum) and another set that contained substrate and cells without any compound (maximum).
The calculation of median inhibitory concentration (IC50) values for the compounds was performed using GraphPad Prism® software. Dose-response curves for each compound were plotted as fractional inhibition and data fitted to the four parameter logistic equation.

[2] = In vitro human liver microsomal stability assay; format: in vitro ADME; settings: human liver microsomes
Description: In Vitro Human Liver Microsomal Stability Assay
To predict in vivo metabolism of compounds, the stability of compounds incubated with human liver microsomes in vitro was determined. Human liver microsome preparations were stored at −80° C. and thawed on ice prior to use. The thawed microsomes were diluted to a concentration of 2 mg/mL in 50 mM sodium phosphate, pH 7.4. Reference and test compounds were prepared as 10 mM stocks in 100% DMSO and diluted to 1 mM in acetonitrile before use. Each compound was tested in triplicate as follows:
4 μL of test or reference compound was added to a well of a 24-well microplate and 0.5 mL of 4 mM NADPH added. The plate was then transferred to a shaker for 10 minutes at room temperature. 30 μL of the compound/NADPH solution was transferred to the well of a 96-well microplate and incubated at 37° C. for 5 minutes. 30 μL of human liver microsomes (pre-incubated at 37° C. for 5 minutes) was added to the well containing the compound/NADPH solution and the plate incubated for the selected period of time (typically 0 or 30 minutes). The reaction was stopped by adding 60 μL of ice cold […] trichloroacetic acid. The plate was centrifuged at 1000 rpm for 5 minutes at room temperature and the supernatant transferred to the well of a new 96-well v-bottomed microplate for mass spectrometric analysis.
Samples were analyzed by TSQ Quantum Discovery Tandem Mass Spectrometer and Surveyor Liquid Chromatogram (Thermo, Hemel-Hempstead, UK). 10 μL of each sample was injected in a mobile phase consisting of 60%:40% methanol:5 mM ammonium acetate at a flow rate of 0.5 mL/minute. The column used was a BDS hypersil, C18, 50×2.1 mm with a 5 μm particle size.
Each compound was tuned with a spray voltage of 3000 V and a capillary temperature of 300° C. and values for tube lens, CID and product ions were determined.
The peak area for each compound was measured in triplicate for the 0 and 30 minute samples and the average of each was reported. The percentage remaining after 30 minutes was calculated as the average peak area of the sample after 30 minutes divided by the average peak area at 0 minutes. The RSD was 10% or lower for each compound.

[3] = biological target: T2, human 11β-HSD2 (Homo sapiens, UniProt P80365); test: Cellular in vitro 11β-HSD2 enzyme inhibition assay (CHO cells); format: cell-based; settings: CHO cells stably transfected with human 11β-HSD2; Table 1
T2 construct: CHO cells stably transfected with the full-length gene coding for human 11β-HSD2 were used; expressed in transfected cells
T2 sequence (P80365 1-405): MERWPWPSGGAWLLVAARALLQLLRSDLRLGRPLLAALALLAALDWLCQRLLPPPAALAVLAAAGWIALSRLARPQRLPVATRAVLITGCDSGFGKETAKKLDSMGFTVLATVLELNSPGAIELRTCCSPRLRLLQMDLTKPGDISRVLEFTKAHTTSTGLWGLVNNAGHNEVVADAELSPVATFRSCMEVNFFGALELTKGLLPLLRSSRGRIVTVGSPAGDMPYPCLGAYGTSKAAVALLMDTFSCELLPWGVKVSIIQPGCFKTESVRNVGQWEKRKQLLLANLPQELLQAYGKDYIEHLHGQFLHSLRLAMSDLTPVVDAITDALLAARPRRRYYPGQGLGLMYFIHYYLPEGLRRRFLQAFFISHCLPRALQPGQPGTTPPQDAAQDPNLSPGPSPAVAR
Description: Cellular In Vitro 11β-HSD2 Enzyme Inhibition Assay
Assays were carried out in 96-well microplates containing 1×10^5 cells/well. Controls and compounds were plated as above, so that the final DMSO concentration in each well was 1%. To initiate the assay, 90 μL of a solution of HAMS F-12 medium containing 1% glutamine, 1% penicillin and streptomycin, and 22 nM tritiated cortisol was added to each well of the assay plate. The plate was then incubated in 5% CO2, 95% O2 at 37° C. for 16 hours.
The assay solutions were transferred to glass tubes and 20 μL ethyl acetate added to each tube. Each tube was vortexed thoroughly and the upper layer containing the tritiated steroid transferred to a fresh glass tube. The solvent was evaporated by placing the tubes in a heating block at 65° C. under a stream of Nitrogen gas. 20 μL ethanol was added to each of the dried samples and vortexed briefly. Each sample was applied to a silica TLC plate and the plate dried. The plate was placed vertically in a glass tank containing 92% chloroform:8% ethanol and the solvent allowed to rise up the plate. The plate was dried, placed in an imaging cassette, and overlayed with a tritium imaging plate for 1-2 days. The amount of enzyme inhibition in each sample was determined by measuring the intensity of the substrate and product spots using a phosphoimager.
IC50 values for inhibitors were determined as described for 11β-HSD1.

[4] = read-out: IC50 for 11β-HSD1 (HEK293)

SMILES | IC50 [1, 4] [nM] | also measured
O=C(c1csc(-c2cn[nH]c2)c1)N1CC2CCC(C1)C2(F)c1ccccc1 (stereo not shown) [AA-39, (8-Fluoro-8-phenyl-3-aza-bicyclo[3.2.1]oct-3-yl)-[5-(1H-pyrazol-4-yl)-thiophen-3-yl]methanone] | 1000 to 10000 | 
O=C(c1csc(-c2cn[nH]c2)c1)N1CCC(c2ccccc2C(F)(F)F)CC1 [BB-13] | 500 to 1000 | % Parent Remaining at 30 min [2]: +++ (61-100% +++)
O=C(c1csc(-c2cn[nH]c2)c1)N1CCC(c2ccccc2Cl)CC1 [BB-15] | ≤ 500 | 
O=C(c1csc(-c2cn[nH]c2)c1)N1CC2CCC(C1)C2(O)c1ccccc1 (stereo not shown) [AA-32] | 500 to 1000 | 
N#CC1(c2ccccc2)CCN(C(=O)c2csc(-c3cn[nH]c3)c2)CC1 [AA-20] |  | IC50 [1]: 1000 to 10000 nM
O=C(c1csc(-c2cn[nH]c2)c1)N1CCC(O)(c2ccccc2O)CC1 [AA-10] | 1000 to 10000 | 
O=C(c1csc(-c2cn[nH]c2)c1)N1CCC(c2ccc(F)cc2)CC1 [BB-01] | 500 to 1000 | % Parent Remaining at 30 min [2]: +++ (61-100% +++)
N#Cc1ccc(C2CCN(C(=O)c3csc(-c4cn[nH]c4)c3)CC2)cc1 [BB-02] | 1000 to 10000 | 
CC1(c2ccccc2Cl)CCN(C(=O)c2csc(-c3cn[nH]c3)c2)CC1 [AA-34] | ≤ 500 | 
O=C(c1csc(-c2cn[nH]c2)c1)N1CCC(O)(c2c(Cl)cccc2Cl)CC1 [AA-27] | ≤ 500 | 
Cc1ccccc1C1(O)CCN(C(=O)c2csc(-c3cn[nH]c3)c2)CC1 [AA-13] | ≤ 500 | 
O=C(c1csc(-c2cn[nH]c2)c1)N1CCC(c2cccc(F)c2)CC1 [BB-05] | ≤ 500 | % Parent Remaining at 30 min [2]: ++ (31-60% ++)
O=C(c1csc(-c2cn[nH]c2)c1)N1CCC(F)(c2ccc(Cl)cc2Cl)CC1 [AA-38] | ≤ 500 | 
Cc1n[nH]cc1-c1cc(C(=O)N2CCC(c3ccccc3)CC2)cs1 [BB-11] | 500 to 1000 | IC50 [3]: > 10000 nM; IC50 ([1]; HEK293 cells stably transfected with human 11β-HSD1, Table 1, read-out: IC50 for 11β-HSD1 (HEK293)): 638 nM
O=C(c1csc(-c2cn[nH]c2)c1)N1CCC(c2ccccc2OC(F)F)CC1 [BB-09] | ≤ 500 | 
O=C(c1csc(-c2cn[nH]c2)c1)N1CCC(c2ccc(Cl)cc2)CC1 [BB-06] | 500 to 1000 | % Parent Remaining at 30 min [2]: +++ (61-100% +++)
O=C(c1csc(-c2cn[nH]c2)c1)N1CCC(O)(c2cccc(C(F)(F)F)c2)CC1 [AA-03] | 500 to 1000 | 
CC1(c2ccccc2)CCN(C(=O)c2csc(-c3cn[nH]c3)c2)CC1 [AA-16] | ≤ 500 | % Parent Remaining at 30 min [2]: + (0-30% +)
O=C(c1csc(-c2cn[nH]c2)c1)N1CCC(O)(c2cc(F)ccc2Cl)CC1 [AA-26] | ≤ 500 | 
O=C(c1csc(-c2cn[nH]c2)c1)N1CCC(O)(c2c(F)cccc2F)CC1 [AA-28] | ≤ 500 | 
O=C(c1csc(-c2cn[nH]c2)c1)N1CCC(CO)(c2ccccc2)CC1 [AA-19] | 1000 to 10000 | 
